Data: PMC12344197 (Bioactive Materials, 2025)
Where a SMILES comes first, the peptide text is derived from it. The star is where a group is joined. Succinyl(20-O-(20S)-CPT) = CC[C@@]1(OC(=O)CCC(=O)*)C(=O)OCc2c1cc1n(c2=O)Cc2cc3ccccc3nc2-1; Biotin = O=C1N[C@H]2[C@H](CS[C@H]2CCCCC(=O)*)N1

What was measured:
Red blood cells (RBCs) = experiment: Hemolysis assay; type: cell-based, BALB/c mice; conditions: mouse RBC suspension in PBS, 2 h, OD540; n = 3
4T1 cells = experiment: CCK-8 assay; type: cell-based; conditions: 20 μM, 4 h incubation, washed, n = 6; for cell viability, no laser: dark, further 24 h
Zeta potential = type: physicochemical; conditions: 10 μM in PBS pH 7.4

| Compound | hemolysis (Red blood cells (RBCs)) | cell viability, no laser (4T1 cells) | zeta potential (Zeta potential) | cell viability, + Laser (4T1 cells; 808 nm laser 5 min 1 W cm−2, further 24 h, absence of biotin) |
| --- | --- | --- | --- | --- |
| CC[C@@]1(OC(=O)CCC(=O)NCCCC[C@H](NC(=O)[C@H](Cc2ccccc2)NC(=O)[C@@H](N)Cc2ccccc2)C(=O)N[C@@H](CCCCNC(=O)CCCC[C@@H]2SC[C@@H]3NC(=O)N[C@@H]32)C(=O)O)C(=O)OCc2c1cc1n(c2=O)Cc2cc3ccccc3nc2-1 [FFKK-CPT, Phe-Phe-Lys(CPT)-Lys(Biotin)] (H-FFK(Succinyl(20-O-(20S)-CPT))K(Biotin)-OH) | no significant hemolysis |  |  |  |
| CC[C@@]1(O)C(=O)OCc2c1cc1n(c2=O)Cc2cc3ccccc3nc2-1 [Free CPT, camptothecin] |  | 49.3% |  |  |
| CN1C(=CC=C2CCCC(C=CC3=[N+](C)c4ccccc4C3(C)C)=C2Cl)C(C)(C)c2ccccc21.[Cl-] [free IR775, IR775] |  | above 80% | +23.9 mV | 38.3% |
